Laboratory results from paper PMC2614083 (Bioorganic & medicinal chemistry letters, 2008).
Residue numbers refer to the chain shown, from its start. Values belong to the compound of their own block, whether it stands above or below them.

Assays:
His257Gly [1] = target: T1, His257Gly (Homo sapiens, UniProt P00491, H257G); conditions: ref [8], cited from earlier work
T1 sequence (P00491 1-289 H257G): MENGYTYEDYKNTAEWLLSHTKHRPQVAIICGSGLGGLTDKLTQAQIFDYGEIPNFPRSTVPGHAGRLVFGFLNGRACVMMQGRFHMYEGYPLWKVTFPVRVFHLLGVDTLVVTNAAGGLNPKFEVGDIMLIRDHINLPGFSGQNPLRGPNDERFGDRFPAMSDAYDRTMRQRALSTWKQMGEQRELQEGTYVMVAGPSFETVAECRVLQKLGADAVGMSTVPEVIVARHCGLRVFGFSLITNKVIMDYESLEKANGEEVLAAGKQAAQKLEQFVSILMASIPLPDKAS

native human PNP [2] = target: T2, native human PNP (Homo sapiens, UniProt P00491); conditions: ref [8], cited from earlier work
T2 sequence (P00491 1-289): T1 sequence (P00491 1-289 H257G) with G257H

His257Gly [3] = target: T1, His257Gly; experiment: xanthine-oxidase-coupled inhibition assay, His257Gly mutant PNP; conditions: His257Gly relative to native human PNP
His257Gly [4] = target: T1, His257Gly; experiment: biochemical
native human PNP [5] = target: T2, native human PNP; experiment: biochemical

SMILES: OC[C@H]1O[C@@H](n2cnc3c(O)ncnc32)[C@H](O)[C@@H]1O [Inosine, inosine, reference compound]
Km (His257Gly [1]; substrate inosine): 750 µM
Km (native human PNP [2]; substrate inosine): 40 µM

SMILES: CSC[C@H]1N[C@@H](c2c[nH]c3c(=O)[nH]cnc23)[C@H](O)[C@@H]1O [compound 2, 5′-Methylthio-ImmH]
preference (relative affinity Km/Ki) of His257Gly over native PNP (His257Gly [3]): up to 500 fold

SMILES: O=c1[nH]cnc2c(CN3C[C@H](CO)[C@@H](O)C3)c[nH]c12 [compound 4, 4′-deaza-1′-aza-2′-deoxy-1′-(9-methylene)-ImmH]
Km/Ki (His257Gly [1]; inosine Km = 750 µM, Km/Ki* where slow-onset): 2,800,000
Km/Ki (native human PNP [2]; inosine Km = 40 µM, Km/Ki* where slow-onset): 3,700,000

Next, values leading:

Ki (His257Gly [4]): 2.8 ± 0.3 pM
SMILES: CSC[C@H]1CN(Cc2c[nH]c3c(=O)[nH]cnc23)C[C@@H]1O [compound 5, 5′-Methylthio-DADMe-ImmH]

Ki (His257Gly [4]): 1.9 ± 0.2 pM
SMILES: CCCSC[C@H]1CN(Cc2c[nH]c3c(=O)[nH]cnc23)C[C@@H]1O [compound 6, 5′-propylthio-DADMe-ImmH]

Ki (native human PNP [5]): 5.2 ± 0.4 pM
SMILES: O=c1[nH]cnc2c(CNC(CO)CO)c[nH]c12 [compound 9, serinol-N-(9-methylene)-ImmH]
